Read-outs that look alike come from different tables or passages of the source.
Tests used:
[1] = mouse, in vivo; for CA (pooled): BChE-KO, 5XFAD-BChE-KO (pooled)
[2] = format: in vivo; settings: 5XFAD mouse, IV, 3D SPECT

Row | SMILES | time of peak radioligand uptake in brain ([1]; 5XFAD and WT (wild-type)) [minutes post-injection] | CA (pooled) ([1]; 5XFAD, WT) [% Cmax] | t1/2 clearance ([1]; 5XFAD) [min] | CA (asymptotic tracer concentration) ([1]; 5XFAD-BChE-KO) [% Cmax] | t1/2 clearance ([1]; WT) [min] | kclearance (pooled) [1] [min⁻¹] | time of peak radioligand uptake in brain ([1]; WT and BChE-KO) [minutes post-injection] | time of peak radioligand uptake in brain ([1]; 5XFAD and WT) [minutes post-injection] | decrease in kclearance ([1]; 5XFAD compared to WT) [%] | increase in t1/2clearance ([1]; 5XFAD compared to WT) [%] | t1/2 clearance [1] | ability to cross the blood-brain barrier / brain uptake ([1]; iv, 60 min) | distribution of the tracer in vivo (extracranial) [2] | radioligand reaching the brain [2]
1 | O=C(OCc1ccc(I)cc1)c1cccc(=O)[nH]1 [TRV7005, (p-Iodophenyl)methyl 6-oxo-1H-pyridine-2-carboxylate] | 2 | 45.4 ± 2.4 | 6.51 ± 1.19 | 42.8 | 7.21 ± 1.75 | 0.11 ± 0.02 |  |  |  |  |  |  |  | 
2 | Cn1c(C(=O)OCc2ccc(I)cc2)cccc1=O [TRV7006, (p-Iodophenyl)methyl 1-methyl-6-oxo-1H-pyridine-2-carboxylate] |  | 51.6 ± 3.4 |  |  | 4.72 ± 0.93 | 0.17 ± 0.03 | 2 |  |  |  |  |  |  | 
3 | COc1cccc(C(=O)OCc2ccc(I)cc2)n1 [TRV7019, (p-iodophenyl)methyl 6-methoxy-2-pyridinecarboxylate] |  | 56.1 ± 3.5 | 3.22 ± 0.55 |  | 1.77 ± 0.15 |  |  | 1 | 58 | 82 | 1.77 ± 0..15 min |  |  | 
4 | O=C(OCc1ccccc1)c1cccc(OCc2ccc(I)cc2)n1 [TRV7040, Benzyl 6-[(p-iodophenyl)methoxy]-2-pyridinecarboxylate] |  |  |  |  |  |  |  |  |  |  |  | inability of TRV7040 to cross the BBB and reach the brain | avid uptake of TRV7040 is seen in the eye and hardarian glands | negligible radioligand reaching the brain

Reference: patent US20230357154A1 (priority 2019, published 2023)
